Patent US10844077B2, “Thiazolyl-containing compounds for treating proliferative diseases” (Dana-Farber Cancer Institute, Inc., priority 2014, dated 2020)
Where “and” joins values, the source holds several entries; their conditions need not be identical. Equal entries are not always repeated.

Legend:
Format in all cases: cell-based
kinases in BCWM.1 cells [1] = target: kinases in BCWM.1 cells (Homo sapiens, UniProt P29597); conditions: TYK2 domain2; Activation Loop; 1 μM, 90 min; GF
Description: (§1) The cells were harvested and lysed. […] Bound kinases were identified and quantitated by ACTIVX as described in Patricelli et al., Biochemistry, 2007, 46(2): 350-358. The compounds were tested in duplicates against duplicate or quadruplicate control samples.

kinases in BCWM.1 cells [2] = target: kinases in BCWM.1 cells (Homo sapiens, UniProt P15735); conditions: PHKg2; Lys1; 1 μM, 90 min; GF
Description: as §1

FRK = FRK (Homo sapiens (Human), UniProt P42685); assay: KINATIV assay; conditions: 1 μM, 90 minutes, BCWM.1 cells
Method in brief: (§2)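 Cell lysate + ATP-biotin probe (direct labeling); bound kinases ID'd/quantitated by ACTIVX. Cpds in duplicate vs duplicate or quadruplicate controls.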

MAP3K3 = MAP3K3 (Homo sapiens (Human), UniProt Q99759); assay: KINATIV assay; conditions: 1 μM, 90 minutes, BCWM.1 cells
Method in brief: as §2

FYN, SRC, YES = assay: KINATIV assay; conditions: 1 μM, 90 minutes, BCWM.1 cells
Method in brief: as §2

JNK1, JNK2, JNK3 = assay: KINATIV assay; conditions: 1 μM, 90 minutes, BCWM.1 cells
Method in brief: as §2

MAP2K7 = MAP2K7 (Homo sapiens (Human), UniProt O14733); assay: KINATIV assay; conditions: 1 μM, 90 minutes, BCWM.1 cells
Method in brief: as §2

ATR = ATR (Homo sapiens (Human), UniProt Q13535); assay: KINATIV assay; conditions: 1 μM, 90 minutes, BCWM.1 cells
Method in brief: as §2

eEF2K = eEF2K (Homo sapiens (Human), UniProt O00418); assay: KINATIV assay; conditions: 1 μM, 90 minutes, BCWM.1 cells
Method in brief: as §2

MYO3A, MYO3B = assay: KINATIV assay; conditions: 1 μM, 90 minutes, BCWM.1 cells
Method in brief: as §2

CaMK2d = CaMK2d (Homo sapiens (Human), UniProt Q13557); assay: KINATIV assay; conditions: 1 μM, 90 minutes, BCWM.1 cells
Method in brief: as §2

PI4KA, PI4KAP2 = assay: KINATIV assay; conditions: 1 μM, 90 minutes, BCWM.1 cells
Method in brief: as §2

CDK6 = CDK6 (Homo sapiens (Human), UniProt Q00534); assay: KINATIV assay; conditions: 1 μM, 90 minutes, BCWM.1 cells
Method in brief: as §2

BARK1 = BARK1 (Homo sapiens (Human), UniProt P25098); assay: KINATIV assay; conditions: 1 μM, 90 minutes, BCWM.1 cells
Method in brief: as §2

NEK3 = NEK3 (Homo sapiens (Human), UniProt P51956); assay: KINATIV assay; conditions: 1 μM, 90 minutes, BCWM.1 cells
Method in brief: as §2

MAP3K5 = MAP3K5 (Homo sapiens (Human), UniProt Q99683); assay: KINATIV assay; conditions: 1 μM, 90 minutes, BCWM.1 cells
Method in brief: as §2

VRK2 = VRK2 (Homo sapiens (Human), UniProt Q86Y07); assay: KINATIV assay; conditions: 1 μM, 90 minutes, BCWM.1 cells
Method in brief: as §2

PIK3CG = PIK3CG (Homo sapiens (Human), UniProt P48736); assay: KINATIV assay; conditions: 1 μM, 90 minutes, BCWM.1 cells
Method in brief: as §2

RSK1 domain2 = RSK1 domain2 (Homo sapiens (Human), UniProt Q15418); assay: KINATIV assay; conditions: 1 μM, 90 minutes, BCWM.1 cells
Method in brief: as §2

SRPK1, SRPK2 = assay: KINATIV assay; conditions: 1 μM, 90 minutes, BCWM.1 cells
Method in brief: as §2

[3] = test system: CaMK2a, CaMK2b, CaMK2d, CaMK2g; assay: KINATIV assay; conditions: 1 μM, 90 minutes, BCWM.1 cells
Method in brief: as §2

MAP3K2, MAP3K3 = assay: KINATIV assay; conditions: 1 μM, 90 minutes, BCWM.1 cells
Method in brief: as §2

NEK4 = NEK4 (Homo sapiens (Human), UniProt P51957); assay: KINATIV assay; conditions: 1 μM, 90 minutes, BCWM.1 cells
Method in brief: as §2

CDK9 = CDK9 (Homo sapiens (Human), UniProt P50750); assay: KINATIV assay; conditions: 1 μM, 90 minutes, BCWM.1 cells
Method in brief: as §2

PYK2 = PYK2 (Homo sapiens (Human), UniProt Q14289); assay: KINATIV assay; conditions: 1 μM, 90 minutes, BCWM.1 cells
Method in brief: as §2

Erk5 = Erk5 (Homo sapiens (Human), UniProt Q13164); assay: KINATIV assay; conditions: 1 μM, 90 minutes, BCWM.1 cells
Method in brief: as §2

ILK = ILK (Homo sapiens (Human), UniProt Q13418); assay: KINATIV assay; conditions: 1 μM, 90 minutes, BCWM.1 cells
Method in brief: as §2

MARK1, MARK2 = assay: KINATIV assay; conditions: 1 μM, 90 minutes, BCWM.1 cells
Method in brief: as §2

PAN3 = PAN3 (Homo sapiens (Human), UniProt Q58A45); assay: KINATIV assay; conditions: 1 μM, 90 minutes, BCWM.1 cells
Method in brief: as §2

TLK1 = TLK1 (Homo sapiens (Human), UniProt Q9UKI8); assay: KINATIV assay; conditions: 1 μM, 90 minutes, BCWM.1 cells
Method in brief: as §2

RSK3 = RSK3 (Homo sapiens (Human), UniProt Q15349); assay: KINATIV assay; conditions: 1 μM, 90 minutes, BCWM.1 cells
Method in brief: as §2

CDC2 = CDC2 (Homo sapiens (Human), UniProt P06493); assay: KINATIV assay; conditions: 1 μM, 90 minutes, BCWM.1 cells
Method in brief: as §2

p38d, p38g = assay: KINATIV assay; conditions: 1 μM, 90 minutes, BCWM.1 cells
Method in brief: as §2

IRAK1 = IRAK1 (Homo sapiens (Human), UniProt P51617); assay: KINATIV assay; conditions: 1 μM, 90 minutes, BCWM.1 cells
Method in brief: as §2

CaMK4 = CaMK4 (Homo sapiens (Human), UniProt Q16566); assay: KINATIV assay; conditions: 1 μM, 90 minutes, BCWM.1 cells
Method in brief: as §2

AMPKa1 = AMPKa1 (Homo sapiens (Human), UniProt Q13131); assay: KINATIV assay; conditions: 1 μM, 90 minutes, BCWM.1 cells
Method in brief: as §2

FRAP = FRAP (Homo sapiens (Human), UniProt P42345); assay: KINATIV assay; conditions: 1 μM, 90 minutes, BCWM.1 cells
Method in brief: as §2

NEK7 = NEK7 (Homo sapiens (Human), UniProt Q8TDX7); assay: KINATIV assay; conditions: 1 μM, 90 minutes, BCWM.1 cells
Method in brief: as §2

MAP2K6 = MAP2K6 (Homo sapiens (Human), UniProt P52564); assay: KINATIV assay; conditions: 1 μM, 90 minutes, BCWM.1 cells
Method in brief: as §2

Chain of ILK (Q13418 whole entry): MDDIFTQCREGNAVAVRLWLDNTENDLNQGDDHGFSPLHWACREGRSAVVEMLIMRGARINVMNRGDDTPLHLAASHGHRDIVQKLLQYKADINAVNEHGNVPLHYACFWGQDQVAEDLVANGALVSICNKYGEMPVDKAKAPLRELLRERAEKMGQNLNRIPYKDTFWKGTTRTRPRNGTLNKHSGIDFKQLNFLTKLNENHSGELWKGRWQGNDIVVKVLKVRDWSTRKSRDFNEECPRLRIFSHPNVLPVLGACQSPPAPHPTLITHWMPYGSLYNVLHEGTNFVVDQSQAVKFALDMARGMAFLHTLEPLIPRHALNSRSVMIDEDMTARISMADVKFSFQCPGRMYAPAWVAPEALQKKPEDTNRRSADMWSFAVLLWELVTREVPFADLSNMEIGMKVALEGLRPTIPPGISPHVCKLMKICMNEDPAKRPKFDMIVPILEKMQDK
Chain of MAP2K6 (P52564 whole entry): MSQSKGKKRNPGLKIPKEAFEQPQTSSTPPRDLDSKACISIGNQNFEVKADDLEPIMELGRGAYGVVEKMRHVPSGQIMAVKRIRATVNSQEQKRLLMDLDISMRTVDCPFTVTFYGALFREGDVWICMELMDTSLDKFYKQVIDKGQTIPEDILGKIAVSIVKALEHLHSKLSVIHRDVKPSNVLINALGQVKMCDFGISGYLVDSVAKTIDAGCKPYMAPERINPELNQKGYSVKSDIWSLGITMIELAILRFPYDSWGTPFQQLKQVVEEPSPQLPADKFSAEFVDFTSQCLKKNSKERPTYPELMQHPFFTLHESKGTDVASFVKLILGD
Chain of TLK1 (Q9UKI8 whole entry): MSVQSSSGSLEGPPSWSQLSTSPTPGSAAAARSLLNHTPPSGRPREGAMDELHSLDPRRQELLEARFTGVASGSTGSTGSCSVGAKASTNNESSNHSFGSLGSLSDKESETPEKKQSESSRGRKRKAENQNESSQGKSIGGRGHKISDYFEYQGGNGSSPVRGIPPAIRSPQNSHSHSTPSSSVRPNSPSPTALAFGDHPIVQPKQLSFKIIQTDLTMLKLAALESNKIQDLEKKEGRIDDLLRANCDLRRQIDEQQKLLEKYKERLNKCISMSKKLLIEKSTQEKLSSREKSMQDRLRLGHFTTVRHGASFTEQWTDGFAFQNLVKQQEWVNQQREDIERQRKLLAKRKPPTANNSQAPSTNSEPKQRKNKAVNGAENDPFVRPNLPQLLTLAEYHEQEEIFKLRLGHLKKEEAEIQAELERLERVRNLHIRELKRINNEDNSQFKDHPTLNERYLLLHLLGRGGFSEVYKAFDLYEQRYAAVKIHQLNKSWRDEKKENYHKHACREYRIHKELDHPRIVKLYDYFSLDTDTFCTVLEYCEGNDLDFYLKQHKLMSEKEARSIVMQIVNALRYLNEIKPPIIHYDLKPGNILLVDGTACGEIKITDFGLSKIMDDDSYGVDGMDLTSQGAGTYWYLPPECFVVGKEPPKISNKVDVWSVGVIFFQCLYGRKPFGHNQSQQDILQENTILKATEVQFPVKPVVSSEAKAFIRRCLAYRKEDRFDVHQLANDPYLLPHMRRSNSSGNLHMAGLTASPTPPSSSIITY
Chain of PYK2 (Q14289 whole entry): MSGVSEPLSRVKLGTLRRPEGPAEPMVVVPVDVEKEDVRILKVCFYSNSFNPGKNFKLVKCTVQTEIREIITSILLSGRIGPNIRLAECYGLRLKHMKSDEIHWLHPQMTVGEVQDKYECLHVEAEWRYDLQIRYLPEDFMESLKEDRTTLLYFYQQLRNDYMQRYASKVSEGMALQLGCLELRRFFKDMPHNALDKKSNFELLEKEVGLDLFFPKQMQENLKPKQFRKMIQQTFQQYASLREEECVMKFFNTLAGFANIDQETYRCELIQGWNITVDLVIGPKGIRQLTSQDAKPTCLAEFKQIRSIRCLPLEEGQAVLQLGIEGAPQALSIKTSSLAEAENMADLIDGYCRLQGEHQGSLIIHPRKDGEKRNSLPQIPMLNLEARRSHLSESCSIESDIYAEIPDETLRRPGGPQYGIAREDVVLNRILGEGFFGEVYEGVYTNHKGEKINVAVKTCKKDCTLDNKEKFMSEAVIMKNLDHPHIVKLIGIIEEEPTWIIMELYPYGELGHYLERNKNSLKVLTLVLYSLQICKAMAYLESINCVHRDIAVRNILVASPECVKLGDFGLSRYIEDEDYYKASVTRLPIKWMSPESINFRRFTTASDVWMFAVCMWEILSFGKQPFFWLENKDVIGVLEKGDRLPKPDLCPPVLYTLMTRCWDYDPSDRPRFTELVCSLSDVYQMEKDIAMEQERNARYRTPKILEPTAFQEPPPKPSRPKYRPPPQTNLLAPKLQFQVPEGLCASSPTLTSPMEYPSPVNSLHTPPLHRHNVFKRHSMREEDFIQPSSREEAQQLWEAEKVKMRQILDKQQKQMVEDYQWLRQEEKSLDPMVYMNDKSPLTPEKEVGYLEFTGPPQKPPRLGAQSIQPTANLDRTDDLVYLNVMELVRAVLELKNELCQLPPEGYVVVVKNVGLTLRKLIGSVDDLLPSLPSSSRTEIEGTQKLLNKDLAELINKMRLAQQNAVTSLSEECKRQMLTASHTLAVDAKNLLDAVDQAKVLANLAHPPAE
Chain of NEK7 (Q8TDX7 whole entry): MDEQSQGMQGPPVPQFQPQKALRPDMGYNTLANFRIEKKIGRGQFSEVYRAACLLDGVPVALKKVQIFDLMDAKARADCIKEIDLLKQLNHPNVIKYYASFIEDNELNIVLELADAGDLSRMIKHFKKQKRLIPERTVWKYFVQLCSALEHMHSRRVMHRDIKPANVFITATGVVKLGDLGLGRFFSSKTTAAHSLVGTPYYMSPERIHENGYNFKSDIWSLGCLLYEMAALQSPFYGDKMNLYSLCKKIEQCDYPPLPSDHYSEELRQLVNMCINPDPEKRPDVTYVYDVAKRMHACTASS
Chain of RSK3 (Q15349 whole entry): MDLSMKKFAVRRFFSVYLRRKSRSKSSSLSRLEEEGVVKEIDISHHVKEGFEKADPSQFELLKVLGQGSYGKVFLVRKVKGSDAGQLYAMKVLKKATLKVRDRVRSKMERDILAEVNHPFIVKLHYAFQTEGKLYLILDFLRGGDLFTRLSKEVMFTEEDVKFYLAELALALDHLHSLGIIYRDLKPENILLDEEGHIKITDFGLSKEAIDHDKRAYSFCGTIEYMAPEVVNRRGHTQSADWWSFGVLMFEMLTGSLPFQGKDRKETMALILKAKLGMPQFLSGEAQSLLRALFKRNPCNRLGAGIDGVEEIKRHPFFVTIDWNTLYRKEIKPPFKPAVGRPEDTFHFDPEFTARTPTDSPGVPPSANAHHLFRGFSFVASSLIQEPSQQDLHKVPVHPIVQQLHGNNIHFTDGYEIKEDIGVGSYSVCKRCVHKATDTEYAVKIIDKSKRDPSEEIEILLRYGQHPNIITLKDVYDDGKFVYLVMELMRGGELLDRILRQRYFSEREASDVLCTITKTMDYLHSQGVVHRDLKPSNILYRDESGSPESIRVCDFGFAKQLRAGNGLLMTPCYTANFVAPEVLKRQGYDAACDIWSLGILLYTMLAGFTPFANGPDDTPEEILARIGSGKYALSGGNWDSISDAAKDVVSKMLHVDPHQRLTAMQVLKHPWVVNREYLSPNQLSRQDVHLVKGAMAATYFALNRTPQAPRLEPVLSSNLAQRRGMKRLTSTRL
Chain of Erk5 (Q13164 whole entry): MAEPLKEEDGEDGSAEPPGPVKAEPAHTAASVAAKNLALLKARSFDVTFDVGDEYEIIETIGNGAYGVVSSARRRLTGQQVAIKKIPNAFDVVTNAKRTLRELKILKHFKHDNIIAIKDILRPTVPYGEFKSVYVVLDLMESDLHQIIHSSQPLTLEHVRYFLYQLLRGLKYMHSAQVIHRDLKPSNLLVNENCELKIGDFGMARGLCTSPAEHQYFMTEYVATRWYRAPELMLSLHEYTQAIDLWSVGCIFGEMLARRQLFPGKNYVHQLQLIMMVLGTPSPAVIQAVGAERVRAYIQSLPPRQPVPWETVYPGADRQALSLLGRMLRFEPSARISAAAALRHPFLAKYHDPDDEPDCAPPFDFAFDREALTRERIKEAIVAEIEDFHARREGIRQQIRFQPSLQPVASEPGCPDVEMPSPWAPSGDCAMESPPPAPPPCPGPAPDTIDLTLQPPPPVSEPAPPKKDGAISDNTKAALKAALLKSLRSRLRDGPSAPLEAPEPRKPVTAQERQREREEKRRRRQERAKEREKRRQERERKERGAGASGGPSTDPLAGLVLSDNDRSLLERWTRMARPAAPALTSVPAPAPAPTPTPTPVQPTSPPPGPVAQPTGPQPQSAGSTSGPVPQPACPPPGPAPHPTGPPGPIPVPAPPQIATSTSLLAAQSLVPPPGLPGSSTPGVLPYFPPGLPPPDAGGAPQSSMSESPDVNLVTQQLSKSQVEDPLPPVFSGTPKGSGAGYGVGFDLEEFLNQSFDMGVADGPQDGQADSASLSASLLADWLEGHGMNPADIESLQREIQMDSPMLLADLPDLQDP
Chain of VRK2 (Q86Y07 whole entry): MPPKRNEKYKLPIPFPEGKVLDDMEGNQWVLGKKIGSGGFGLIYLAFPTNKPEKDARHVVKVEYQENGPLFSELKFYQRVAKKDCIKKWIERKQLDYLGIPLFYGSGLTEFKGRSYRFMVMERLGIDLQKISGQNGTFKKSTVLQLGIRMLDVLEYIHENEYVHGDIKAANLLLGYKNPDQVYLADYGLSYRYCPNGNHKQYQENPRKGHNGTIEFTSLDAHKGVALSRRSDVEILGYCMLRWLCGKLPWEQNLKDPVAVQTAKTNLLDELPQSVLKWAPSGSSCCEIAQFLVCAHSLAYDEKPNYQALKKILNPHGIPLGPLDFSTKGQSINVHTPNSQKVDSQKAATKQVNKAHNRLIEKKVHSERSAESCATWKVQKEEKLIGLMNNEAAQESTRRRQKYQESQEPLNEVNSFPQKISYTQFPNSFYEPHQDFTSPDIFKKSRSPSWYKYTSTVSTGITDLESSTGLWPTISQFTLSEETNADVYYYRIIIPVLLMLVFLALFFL

## C=CC(=O)N1CC[C@H](Nc2nccc(Nc3ncc(C(=O)Nc4c(C)cccc4C)s3)n2)C1 [Example I-3]
Kinases in BCWM.1 cells [1]
  % change of MS signal compared to control sample: −5.5%
Kinases in BCWM.1 cells [2]
  % change of MS signal compared to control sample: 22.3%

## C=CC(=O)N1CCCCC(Nc2nccc(Nc3ncc(C(=O)Nc4c(C)cccc4C)s3)n2)C1 (centres unmarked) [Example I-7]
FRK
  % change of MS signal compared to control sample: 93.3%
MAP3K3
  % change of MS signal compared to control sample: 42.8%
FYN, SRC, YES
  % change of MS signal compared to control sample: 98.4%
JNK1, JNK2, JNK3
  % change of MS signal compared to control sample: −4.8%
MAP2K7
  % change of MS signal compared to control sample: 11.2%
ATR
  % change of MS signal compared to control sample: −48.0%
eEF2K
  % change of MS signal compared to control sample: 4.9%
MYO3A, MYO3B
  % change of MS signal compared to control sample: 17.2%
CaMK2d
  % change of MS signal compared to control sample: −22.5%
PI4KA, PI4KAP2
  % change of MS signal compared to control sample: −17.4%
CDK6
  % change of MS signal compared to control sample: 4.1%
BARK1
  % change of MS signal compared to control sample: −29.7%
NEK3
  % change of MS signal compared to control sample: 15.6%
MAP3K5
  % change of MS signal compared to control sample: −9.3%
VRK2
  % change of MS signal compared to control sample: −2.3%
PIK3CG
  % change of MS signal compared to control sample: −51.9%
RSK1 domain2
  % change of MS signal compared to control sample: 4.9%
SRPK1, SRPK2
  % change of MS signal compared to control sample: 17.3%
[3]
  % change of MS signal compared to control sample: 7.4%
MAP3K2, MAP3K3
  % change of MS signal compared to control sample: 15.6%
NEK4
  % change of MS signal compared to control sample: 7.9%
CDK9
  % change of MS signal compared to control sample: −37.0%
PYK2
  % change of MS signal compared to control sample: 16.6% and 28.4%
Erk5
  % change of MS signal compared to control sample: −13.8%
ILK
  % change of MS signal compared to control sample: 17.1% and 28.2%
MARK1, MARK2
  % change of MS signal compared to control sample: 7.9%
PAN3
  % change of MS signal compared to control sample: −0.2%
TLK1
  % change of MS signal compared to control sample: 1.8% and 5.5%
RSK3
  % change of MS signal compared to control sample: 12.6%
CDC2
  % change of MS signal compared to control sample: −16.2%
p38d, p38g
  % change of MS signal compared to control sample: 1.7%
IRAK1
  % change of MS signal compared to control sample: 19.0%
CaMK4
  % change of MS signal compared to control sample: −24.9%
AMPKa1
  % change of MS signal compared to control sample: 2.7%
FRAP
  % change of MS signal compared to control sample: −3.5%
NEK7
  % change of MS signal compared to control sample: 10.0%
MAP2K6
  % change of MS signal compared to control sample: 5.9% and 2.5%

## CCC(=O)N1CC[C@H](Nc2nccc(Nc3ncc(C(=O)Nc4c(C)cccc4C)s3)n2)C1 [Example I-9]
Kinases in BCWM.1 cells [1]
  % change of MS signal compared to control sample: −16.8%
Kinases in BCWM.1 cells [2]
  % change of MS signal compared to control sample: 5.3%
